The values below are quoted from earlier work in patent publication US20070212431A1, “Cream for treatment of skin injured by the sun” (priority 2001, published 2007).

The conditions of data set [1]: topical application to the skin.
The next data set concerns photodamaged skin. Conditions: controlled studies (Q-10); open uncontrolled clinical study (lipoic acid).
For data set [2] the following is noted: applied to the skin in ethyl alcohol solution, after penetrating the horny layer.

`O=C(O)CCCCC1CCSS1` (racemic) [lipoic acid, d,l-α-lipoic acid]: in data set [1], the “time until found in the dermis” value was no more than 4 h. The “effect on photodamaged skin” value in the data set with photodamaged skin is recorded as “shown to have an effect on photodamaged skin to a certain extent”.
Turning to `COC1=C(OC)C(=O)C(C/C=C(\C)CC/C=C(\C)CC/C=C(\C)CC/C=C(\C)CC/C=C(\C)CC/C=C(\C)CC/C=C(\C)CC/C=C(\C)CC/C=C(\C)CCC=C(C)C)=C(C)C1=O` [Q-10, coenzyme Q-10], in data set [2], the “share reaching the dermis” value is recorded as roughly 2% and the “share reaching the living part of epidermis” value was “about 20%”. In addition, the “effect on photodamaged skin” value in the data set on photodamaged skin is reported as “to some extent has been shown to have an effect”.
